Source: ChEMBL document CHEMBL5465560, “Selectivity Literature for EUbOPEN Chemogenomic Library” (2024)

Experiments:
[1] = target: T1, Mitogen-activated protein kinase 12 (Homo sapiens) (UniProt P53778); assay: Selectivity interaction (Upstate Kinase Profiler service (Millipore)) EUB0000056c MAPK12; conditions: at 1 µM
T1 sequence (whole entry): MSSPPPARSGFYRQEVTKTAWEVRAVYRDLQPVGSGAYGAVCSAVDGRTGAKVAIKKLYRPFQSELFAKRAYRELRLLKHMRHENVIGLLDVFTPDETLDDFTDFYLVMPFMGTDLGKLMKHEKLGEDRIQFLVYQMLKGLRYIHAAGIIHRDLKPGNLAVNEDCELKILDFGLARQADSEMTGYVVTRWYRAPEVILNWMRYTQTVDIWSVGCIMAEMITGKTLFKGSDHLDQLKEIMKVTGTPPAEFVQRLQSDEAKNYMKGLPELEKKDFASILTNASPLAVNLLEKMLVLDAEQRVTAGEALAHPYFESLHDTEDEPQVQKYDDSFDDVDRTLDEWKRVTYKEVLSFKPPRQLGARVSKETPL

[2] = target: T2, Cytoplasmic tyrosine-protein kinase BMX (Homo sapiens) (UniProt P51813); assay: Selectivity interaction (KinomeScan (DiscoverX)) EUB0000655a BMX; conditions: at 10 µM
T2 sequence (whole entry): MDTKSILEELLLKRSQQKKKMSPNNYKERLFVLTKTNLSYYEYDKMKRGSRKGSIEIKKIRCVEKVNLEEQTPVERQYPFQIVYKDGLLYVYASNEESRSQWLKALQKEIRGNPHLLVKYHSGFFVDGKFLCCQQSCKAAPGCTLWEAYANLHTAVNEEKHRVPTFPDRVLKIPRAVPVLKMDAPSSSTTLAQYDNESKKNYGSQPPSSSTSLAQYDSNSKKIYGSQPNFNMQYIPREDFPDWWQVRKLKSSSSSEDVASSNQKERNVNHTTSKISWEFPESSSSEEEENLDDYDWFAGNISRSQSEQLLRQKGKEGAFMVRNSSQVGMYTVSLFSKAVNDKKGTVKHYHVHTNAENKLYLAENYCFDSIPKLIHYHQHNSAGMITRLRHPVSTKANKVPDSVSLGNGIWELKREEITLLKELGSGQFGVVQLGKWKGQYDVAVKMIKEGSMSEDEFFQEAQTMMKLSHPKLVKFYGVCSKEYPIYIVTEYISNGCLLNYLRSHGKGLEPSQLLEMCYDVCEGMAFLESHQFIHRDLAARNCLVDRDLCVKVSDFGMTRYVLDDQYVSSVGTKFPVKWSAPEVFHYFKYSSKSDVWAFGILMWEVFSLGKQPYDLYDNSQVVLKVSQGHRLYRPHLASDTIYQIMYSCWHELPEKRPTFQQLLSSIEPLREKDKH

[3] = target: T3, Tyrosine-protein kinase TXK (Homo sapiens) (UniProt P42681); assay: Selectivity interaction (KinomeScan (DiscoverX)) EUB0001079a TXK; conditions: at 1 µM
T3 sequence (whole entry): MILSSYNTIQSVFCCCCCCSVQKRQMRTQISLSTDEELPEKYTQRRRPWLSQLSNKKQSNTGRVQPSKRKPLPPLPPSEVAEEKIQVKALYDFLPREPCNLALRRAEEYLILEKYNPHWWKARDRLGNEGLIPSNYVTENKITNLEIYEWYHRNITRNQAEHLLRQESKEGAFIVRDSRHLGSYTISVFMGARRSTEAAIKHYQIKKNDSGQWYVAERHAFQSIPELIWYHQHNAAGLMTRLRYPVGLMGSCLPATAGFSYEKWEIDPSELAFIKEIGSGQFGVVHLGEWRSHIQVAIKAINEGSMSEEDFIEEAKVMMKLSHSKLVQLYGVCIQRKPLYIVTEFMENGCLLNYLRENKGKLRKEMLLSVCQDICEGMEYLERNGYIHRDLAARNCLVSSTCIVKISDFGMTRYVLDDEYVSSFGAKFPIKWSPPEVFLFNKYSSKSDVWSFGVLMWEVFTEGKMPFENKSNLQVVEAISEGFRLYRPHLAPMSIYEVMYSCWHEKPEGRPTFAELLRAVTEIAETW

[4] = target: Protein-tyrosine kinase 6 (Homo sapiens, UniProt Q13882); assay: Selectivity interaction (KinaseProfiler screening (Millipore)) EUB0000601a PTK6; conditions: at 3 µM
[5] = target: Ribosomal protein S6 kinase alpha-3 (Homo sapiens, UniProt P51812); assay: Selectivity interaction (Kinase panel (Z-LYTE Assay)) EUB0001632a RPS6KA3; conditions: at 10 µM
[6] = target: T4, Dual specificity mitogen-activated protein kinase kinase 3 (Homo sapiens) (UniProt P46734); assay: Selectivity interaction (LanthaScreen Eu Kinase Binding Assay) EUB0001632a MAP2K3; conditions: at 10 µM
T4 sequence (whole entry): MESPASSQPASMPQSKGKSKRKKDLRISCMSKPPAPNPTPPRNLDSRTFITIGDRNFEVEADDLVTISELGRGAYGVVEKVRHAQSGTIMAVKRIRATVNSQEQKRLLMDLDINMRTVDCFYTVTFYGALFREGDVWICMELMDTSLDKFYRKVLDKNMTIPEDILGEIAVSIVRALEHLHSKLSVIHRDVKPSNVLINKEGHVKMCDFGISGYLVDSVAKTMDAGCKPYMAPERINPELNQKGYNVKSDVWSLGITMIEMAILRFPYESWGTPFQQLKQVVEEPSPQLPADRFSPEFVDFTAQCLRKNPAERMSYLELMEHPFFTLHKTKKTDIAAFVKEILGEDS

[7] = target: Casein kinase II subunit alpha (Homo sapiens, UniProt P68400); assay: Selectivity interaction (ActivX KiNativ screen (kinase selectivity in THP-1 cell lysates)) EUB0000639a CSNK2A1; type: subcellular; conditions: lysate
[8] = target: Angiopoietin-1 receptor (Homo sapiens) (UniProt Q02763); assay: Selectivity interaction (KinomeScan (DiscoverX)) EUB0000045b TEK
[9] = target: Leukocyte tyrosine kinase receptor (Homo sapiens, UniProt P29376); assay: Selectivity interaction (Ambit KINOMEscan and KiNATiv profiling in Jurkat cells) EUB0000090b LTK; type: cell-based; conditions: at 1 µM
[10] = target: T5, Dual specificity mitogen-activated protein kinase kinase 5 (Homo sapiens) (UniProt Q13163); assay: Selectivity interaction (Ambit KINOMEscan and KiNATiv profiling in Jurkat cells) EUB0000090b MAP2K5; type: cell-based; conditions: at 1 µM
T5 sequence (whole entry): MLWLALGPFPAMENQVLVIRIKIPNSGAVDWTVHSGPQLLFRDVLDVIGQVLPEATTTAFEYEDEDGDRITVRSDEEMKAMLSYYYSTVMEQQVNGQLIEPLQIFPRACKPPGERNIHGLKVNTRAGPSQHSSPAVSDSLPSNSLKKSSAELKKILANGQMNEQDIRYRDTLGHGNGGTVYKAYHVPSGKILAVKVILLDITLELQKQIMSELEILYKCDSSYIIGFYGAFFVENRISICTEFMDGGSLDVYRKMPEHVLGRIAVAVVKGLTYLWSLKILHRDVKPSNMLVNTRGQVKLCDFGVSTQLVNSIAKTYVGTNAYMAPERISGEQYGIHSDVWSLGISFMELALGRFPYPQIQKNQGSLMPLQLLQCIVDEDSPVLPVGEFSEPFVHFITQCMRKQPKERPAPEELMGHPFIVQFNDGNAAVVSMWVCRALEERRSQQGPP

Chain of Angiopoietin-1 receptor (Homo sapiens) (Q02763 whole entry): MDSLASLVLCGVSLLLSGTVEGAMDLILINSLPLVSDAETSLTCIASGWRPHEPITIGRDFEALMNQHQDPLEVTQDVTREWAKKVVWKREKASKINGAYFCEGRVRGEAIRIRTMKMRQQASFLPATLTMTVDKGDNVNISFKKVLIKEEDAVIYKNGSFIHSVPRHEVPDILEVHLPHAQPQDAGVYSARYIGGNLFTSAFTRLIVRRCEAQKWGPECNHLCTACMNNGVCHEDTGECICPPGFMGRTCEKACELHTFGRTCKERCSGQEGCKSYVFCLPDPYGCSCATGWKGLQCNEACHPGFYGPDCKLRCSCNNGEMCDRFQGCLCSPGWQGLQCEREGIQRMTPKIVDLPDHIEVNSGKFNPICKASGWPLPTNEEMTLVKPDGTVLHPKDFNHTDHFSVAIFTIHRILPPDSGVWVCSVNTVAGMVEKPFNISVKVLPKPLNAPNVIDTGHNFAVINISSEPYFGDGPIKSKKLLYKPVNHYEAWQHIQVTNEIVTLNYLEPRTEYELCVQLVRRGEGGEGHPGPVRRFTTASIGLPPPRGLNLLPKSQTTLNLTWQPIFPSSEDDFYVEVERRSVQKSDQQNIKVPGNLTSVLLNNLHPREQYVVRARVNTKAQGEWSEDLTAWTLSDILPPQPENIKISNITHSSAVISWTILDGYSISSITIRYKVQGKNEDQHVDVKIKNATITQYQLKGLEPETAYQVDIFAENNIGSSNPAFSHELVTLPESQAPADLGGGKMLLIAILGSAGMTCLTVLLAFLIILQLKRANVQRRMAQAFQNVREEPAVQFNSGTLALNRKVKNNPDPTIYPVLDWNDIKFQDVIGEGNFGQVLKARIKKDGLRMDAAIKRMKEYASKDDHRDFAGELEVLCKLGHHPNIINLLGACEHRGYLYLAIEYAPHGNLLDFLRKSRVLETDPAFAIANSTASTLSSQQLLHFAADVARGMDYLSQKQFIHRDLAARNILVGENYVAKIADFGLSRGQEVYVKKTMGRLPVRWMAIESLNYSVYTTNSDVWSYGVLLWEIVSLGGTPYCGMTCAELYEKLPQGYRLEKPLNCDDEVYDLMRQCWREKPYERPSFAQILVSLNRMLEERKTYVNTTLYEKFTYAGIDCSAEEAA
Chain of Casein kinase II subunit alpha (P68400 whole entry, looked up): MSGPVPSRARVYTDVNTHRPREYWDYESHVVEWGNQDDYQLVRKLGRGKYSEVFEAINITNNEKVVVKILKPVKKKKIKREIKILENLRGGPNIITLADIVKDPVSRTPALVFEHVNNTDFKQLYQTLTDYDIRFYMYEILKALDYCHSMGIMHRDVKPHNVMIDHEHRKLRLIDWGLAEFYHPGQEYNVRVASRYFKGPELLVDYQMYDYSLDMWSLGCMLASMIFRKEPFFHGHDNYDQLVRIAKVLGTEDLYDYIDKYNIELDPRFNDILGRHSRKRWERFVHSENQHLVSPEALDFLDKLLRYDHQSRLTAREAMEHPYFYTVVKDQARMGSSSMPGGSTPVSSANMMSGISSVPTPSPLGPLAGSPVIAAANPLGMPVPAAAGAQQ
Chain of Leukocyte tyrosine kinase receptor (P29376 whole entry): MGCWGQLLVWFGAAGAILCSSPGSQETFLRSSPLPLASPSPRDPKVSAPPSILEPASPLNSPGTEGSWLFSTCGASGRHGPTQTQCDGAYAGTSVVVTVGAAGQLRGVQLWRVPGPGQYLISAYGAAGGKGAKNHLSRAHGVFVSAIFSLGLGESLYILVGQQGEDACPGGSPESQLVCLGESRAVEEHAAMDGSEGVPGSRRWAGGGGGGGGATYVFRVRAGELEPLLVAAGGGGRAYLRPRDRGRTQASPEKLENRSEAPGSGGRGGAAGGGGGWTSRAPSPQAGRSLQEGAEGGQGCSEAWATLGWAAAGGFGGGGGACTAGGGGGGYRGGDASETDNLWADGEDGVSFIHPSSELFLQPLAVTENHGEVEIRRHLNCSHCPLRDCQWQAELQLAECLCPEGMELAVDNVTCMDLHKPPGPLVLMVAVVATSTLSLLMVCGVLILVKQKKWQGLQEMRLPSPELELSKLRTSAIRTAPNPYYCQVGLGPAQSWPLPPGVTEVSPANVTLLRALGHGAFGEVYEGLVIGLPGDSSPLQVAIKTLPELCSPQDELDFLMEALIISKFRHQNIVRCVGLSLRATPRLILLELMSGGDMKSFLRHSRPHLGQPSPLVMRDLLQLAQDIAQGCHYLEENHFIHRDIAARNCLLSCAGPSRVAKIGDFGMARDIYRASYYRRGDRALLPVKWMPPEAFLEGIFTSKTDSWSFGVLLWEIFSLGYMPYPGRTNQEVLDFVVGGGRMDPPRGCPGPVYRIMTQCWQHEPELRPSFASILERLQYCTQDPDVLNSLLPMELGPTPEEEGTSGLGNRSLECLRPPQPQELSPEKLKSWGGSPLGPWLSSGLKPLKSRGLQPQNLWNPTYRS
Chain of Protein-tyrosine kinase 6 (Q13882 whole entry, looked up): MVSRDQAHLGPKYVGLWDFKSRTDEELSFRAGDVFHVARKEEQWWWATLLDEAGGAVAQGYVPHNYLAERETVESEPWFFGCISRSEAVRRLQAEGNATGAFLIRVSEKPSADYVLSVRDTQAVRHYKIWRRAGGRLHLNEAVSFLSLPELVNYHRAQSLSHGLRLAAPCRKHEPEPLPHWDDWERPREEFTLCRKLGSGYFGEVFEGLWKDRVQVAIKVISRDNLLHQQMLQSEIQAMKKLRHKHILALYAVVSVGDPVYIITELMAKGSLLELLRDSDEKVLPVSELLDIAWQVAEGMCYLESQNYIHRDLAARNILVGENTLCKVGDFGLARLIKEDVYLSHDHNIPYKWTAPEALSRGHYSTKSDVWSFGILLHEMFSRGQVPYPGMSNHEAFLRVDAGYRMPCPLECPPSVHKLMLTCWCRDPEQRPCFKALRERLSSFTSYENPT
Chain of Ribosomal protein S6 kinase alpha-3 (P51812 whole entry): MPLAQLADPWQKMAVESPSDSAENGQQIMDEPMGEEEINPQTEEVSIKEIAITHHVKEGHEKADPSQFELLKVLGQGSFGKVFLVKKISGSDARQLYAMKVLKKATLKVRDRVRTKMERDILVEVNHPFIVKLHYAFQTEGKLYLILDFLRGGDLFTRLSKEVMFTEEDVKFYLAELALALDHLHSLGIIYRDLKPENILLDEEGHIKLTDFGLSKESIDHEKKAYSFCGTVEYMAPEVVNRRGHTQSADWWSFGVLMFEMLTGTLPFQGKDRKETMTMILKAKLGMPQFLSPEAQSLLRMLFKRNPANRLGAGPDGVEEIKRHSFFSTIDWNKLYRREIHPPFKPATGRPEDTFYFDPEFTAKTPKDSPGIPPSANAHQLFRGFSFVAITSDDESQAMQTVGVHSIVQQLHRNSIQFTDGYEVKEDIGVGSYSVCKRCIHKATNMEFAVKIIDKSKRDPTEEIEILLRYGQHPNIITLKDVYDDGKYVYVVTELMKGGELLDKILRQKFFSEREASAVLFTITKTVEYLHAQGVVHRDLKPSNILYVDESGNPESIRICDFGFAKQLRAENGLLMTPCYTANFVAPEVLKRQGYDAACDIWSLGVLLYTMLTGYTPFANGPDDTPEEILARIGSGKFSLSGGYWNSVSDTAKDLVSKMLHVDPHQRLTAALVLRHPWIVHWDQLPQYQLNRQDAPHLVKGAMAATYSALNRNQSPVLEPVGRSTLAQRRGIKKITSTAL

Cc1ccc(-c2ccc3c(ccc4sc5c(c43)NC[C@@H](C)NC5=O)n2)cn1
% of inhibition [1]: -15%

CN(C)CCOc1ccc(-c2nc(-c3ccncc3)c(-c3ccc4c(c3)CC/C4=N\O)[nH]2)cc1
% of control [2]: 81%

Nc1cnc(N2CCc3cc(S(=O)(=O)Nc4c(F)cc(Cl)cc4F)cc(N4CCCC4=O)c32)nc1 [TP-020n]
% of control [3]: 83%

CCc1cc(Nc2nccc(-c3c(-c4ccc(OC)c(C(=O)Nc5c(F)cccc5F)c4)nc4ccccn34)n2)c(OC)cc1N1CCC(N2CCN(S(C)(=O)=O)CC2)CC1
% of inhibition [4]: 65%

Cn1cc(-n2cnc3c(NCc4nc5cc(Cl)c(Cl)cc5[nH]4)nc(N4CCOCC4)nc32)cn1
% of control [5]: 4.92% | % of inhibition [6]: -63.6%

CC[C@@H]1[C@H](F)C(=O)N[C@@H]1COc1nccc2cc(C(N)=O)c(OC)cc12 [ZIMLOVISERTIB]
% of inhibition ([7]; at 1 µM): 25.8% | % of inhibition ([7]; at 5 µM): -6.9%

C=CC(=O)Nc1cc(-n2c(=O)ccc3cnc4ccc(-c5ccc(NS(C)(=O)=O)cc5)cc4c32)ccc1C
% of control ([8]; at 1 µM): 89% | % of control ([8]; at 10 µM): 99%

CN(C)C/C=C/C(=O)Nc1ccc(C(=O)N2CCCC(Nc3ncc(Cl)c(-c4c[nH]c5ccccc45)n3)C2)cc1 (configuration not stated)
% of control [9]: 84% | % of control [10]: 97%
